The source of these data is patent publication US7259172B2, “Inhibitors of β-lactamase” (priority 1999, dated 2007).

Molecules are shown by their SMILES. Where a name gives a salt, the structure may show the parent alone.

Series [1] relates to Enterobacter cloacae [ATCC #23355]. The series is classed as cell-based. As to conditions: ratio antibiotic MIC without/with inhibitor; inhibitor 10 μg/mL. From the text:
An increasing number of organisms produce enzymes that inhibit the actions of β-lactam antibiotics, so-called β-lactamases. […] The Minimum Inhibitory Concentration (MIC) test determines the lowest concentration of an antibiotic at which no visible bacterial growth occurs. This test permits comparisons to be made between bacterial growth in the presence of antibiotic alone (control) and bacterial growth in the presence of both an antibiotic and a novel (test) compound.
(§1) Frozen bacterial stocks were thawed to room temperature, and a few drops were placed on an appropriate plate; chocolate agar was used for H. influenzae, blood agar was used for all others. The plates were incubated overnight at 37° C. in air, except for H. influenzae, which was incubated in a CO2 incubator. The cultures were subcultured the following day, and the subcultures were again incubated overnight
A sterile loop was touched to 3 colonies and used to inoculate 1 mL of Mueller-Hinton Broth (MHB). […] 5 μL of the resultant inoculum solution contained ˜4×10^4 CFU/mL. Confirmation of the inoculum was performed by preparing a serial dilution to give 100 μL of a 5000-fold dilution, all of which was then plated onto an appropriate plate.
Each plate included 2 wells with no bacterial inoculum (negative control) and 2 wells with no test compound and no antibiotic (positive control). The plate was covered and incubated with gentle shaking for 16-20 hours at 37° C. in air (CO2 for H. influenzae). Absorbance was read at 540 nm (Multiskan Titertek mcc/340). Bacterial growth was scored as follows:
(§2) In some cases, the determination of MIC in the presence of test compound was performed at more than one concentration of the test compound.
The impact of the novel β-lactamase inhibitors is expressed as the ratio of the MIC determined in the absence of β-lactamase inhibitor to the MIC determined in the presence of the specified concentration of the β-lactamase inhibitor test compound.

Series [2] addresses P99 β-lactamase (class C) (Enterobacter cloacae, UniProt P05364). The experiment in a line: biochemical. On the procedure:
Enzyme activity against the commercially available substrate, nitrocefin, was measured in the presence of various inhibitor concentrations. The P99 β-lactamase enzyme (1 mg/mL) was dissolved in 20 mM MOPS buffer at pH 7.50, and diluted 200-fold in the same buffer containing 0.1% BSA. Nitrocefin was stored as a 100 μM stock solution in 20 mM MOPS at pH 7.5. Stock solutions of test compounds were prepared in 10 mM MOPS at pH 7.5 (approximately 1 mg/mL)
The reaction at 25° C. was followed spectrophotometrically at 482 nm. IC50 values were determined from the dose-response plots of the initial rates vs. inhibitor concentration

For series [3], the system named is Stenotrophomonas maltophilia [ATCC#12968-resistant]. Description: Synergy against highly resistant β-lactamase positive strains. In kind it is cell-based. As to the method: as §1
(§3) A sterile loop was touched to 3 colonies and used to inoculate 1 mL of Mueller-Hinton Broth (MHB). The bacterial solution was diluted 18.8-fold (20 μL of bacterial solution in […] of broth). 5 μL of the resultant inoculum solution contained ˜4×10^4 CFU/mL. Confirmation of the inoculum was performed by preparing a serial dilution to give 100 μL of a 5000-fold dilution, all of which was then plated onto an appropriate plate. After incubation overnight at 37° C., the plate had 75-150 colonies.
(§4) In each well of a 96-well microtiter plate was combined 5 μL of bacterial inoculum, 90 μL of antibiotic dilutions, and 5 μL of test compound (or media for determination of the MIC of the antibiotic in the absence of test compound). Each plate included 2 wells with no bacterial inoculum (negative control) and 2 wells with no test compound and no antibiotic (positive control). The plate was covered and incubated with gentle shaking for 16-20 hours at 37° C. in air (CO2 for H. influenzae). Absorbance was read at 540 nm (Multiskan Titertek mcc/340). Bacterial growth was scored as follows:
as §2
(§5) The impact of the novel β-lactamase inhibitors is expressed as the ratio of the MIC determined in the absence of β-lactamase inhibitor to the MIC determined in the presence of the specified concentration of the β-lactamase inhibitor test compound. […]
(§6) Following procedures identical to those described in Example 72, β-lactamase inhibitors were tested for their ability to enhance antibiotic efficacy against β-lactamase positive bacterial strains that are very highly resistant to β-lactam antibiotics.
(§7) • Enterobacter cloacae (derepressed) • Pseudomonas aeroginosa [ATCC#12470-resistant] • Stenotrophomonas maltophilia [ATCC#12968-resistant] • Pseudomonas aeroginosa [ATCC#98043010-intermediate resistance] • Stenotrophomonas maltopilia [ATCC#98043029-intermediate resistance]

In series [4] the test system is Stenotrophomonas maltophilia [ATCC#98043029-intermediate resistance]. The description is as above. In kind it is cell-based. On the procedure:
as §1, §3, §4, §2, §5, §6, §7

Series [5] deals with Enterobacter cloacae (derepressed). The series is described as above. The series is classed as cell-based. As to conditions: derepressed strain. On the procedure: as §1, §3, §4, §2, §5, §6, §7
Series [6] has as its system Pseudomonas aeroginosa [ATCC#12470-resistant]. The series is described as above. The series is classed as cell-based. On the procedure:
as §1, §3, §4, §2, §5, §6, §7

In series [7] the test system is Pseudomonas aeroginosa [ATCC#98043010-intermediate resistance]. The series is described as above. The series is classed as cell-based. As to the method:
as §1, §3, §4, §2, §5, §6, §7

Chain of P99 β-lactamase (class C) (P05364 21-381): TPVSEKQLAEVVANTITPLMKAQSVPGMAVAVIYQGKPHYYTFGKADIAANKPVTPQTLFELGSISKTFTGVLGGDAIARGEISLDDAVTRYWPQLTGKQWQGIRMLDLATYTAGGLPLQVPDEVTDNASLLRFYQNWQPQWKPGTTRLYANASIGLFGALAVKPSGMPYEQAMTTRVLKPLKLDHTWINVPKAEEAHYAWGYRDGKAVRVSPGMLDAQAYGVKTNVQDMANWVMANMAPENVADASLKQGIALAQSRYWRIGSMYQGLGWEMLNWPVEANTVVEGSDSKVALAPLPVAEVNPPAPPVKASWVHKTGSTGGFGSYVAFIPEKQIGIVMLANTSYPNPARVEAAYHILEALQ

For orientation: logP means a log measure of how a compound divides between an organic and an aqueous phase. A lower logP goes with a more hydrophilic compound. The term IC50 denotes the concentration at which inhibition is half-maximal. Low readings indicate greater potency, high ones weaker potency. `O=[N+]([O-])c1ccc(OP(=O)(O)CNS(=O)(=O)c2cc3c(Cl)ccc(Cl)c3s2)cc1` [Compound 128, (5,8-dichlorobenzothiophene-2-sulfonyl)aminomethylphosphonic acid mono-(4-nitrophenyl) ester ammonium salt] returned a logP in the series “physchem” of 0.45. Moreover, the “Synergy Class C E. Cl” value in series [1] was 16. Also, in series [2], the midpoint of inhibition, the IC50, lay at 100 nM. Further, the “Synergy Resistant Stenotro.” value in series [3] (inhibitor 1 μg/mL) and in series [3] (inhibitor 10 μg/mL) was 1 throughout. In addition, the “Synergy Intermed. Stenotro.” value in series [4] (inhibitor 1 μg/mL) is reported as 1; in series [4] (inhibitor 10 μg/mL), 2. Further, the “Synergy Resistant Ent. Cloacae” value amounted to 1 in series [5] (inhibitor 1 μg/mL) and 5 in series [5] (inhibitor 10 μg/mL). In addition, the “Synergy Resistant Pseudo.” value in series [6] (inhibitor 1 μg/mL) and in series [6] (inhibitor 10 μg/mL) was 1 in each case. The “Synergy Intermed. Pseudo.” value in series [7] (inhibitor 1 μg/mL) came to 1; in series [7] (inhibitor 10 μg/mL), 2.
